According to US11311598B2, “Peptides and analogs for use in the treatment of oral mucositis” (Soligenix, Inc., priority 2013, dated 2022):
Where no end group is shown, it is not given here.

What was measured:
male C57BL/6 mice = assay: DSS-induced colitis model; format: in vivo, mouse
Description: The ability of IV RIVPA (SEQ ID NO. 5), administered pre-emptively or therapeutically, to directly protect GI mucosal surfaces was confirmed in a DSS-induced colitis model. In this model, DSS was administered as a 3% DSS solution in the drinking water of male C57BL/6 mice from Days 0 to 5 of the study. Colitis was monitored by video endoscopy on Days 7, 14 and 21. RIVPA (SEQ ID NO. 5) (25 mg/kg IV) was administered every third day from Days 0 to 18 (Q3d d0-18), from Days 3 to 18 (Q3d d3-18) or from Days 6 to 18 (Q3d d6-18). […] However, reduction in Day 7 scores was only observed in groups which had received at least 2 doses of RIVPA (SEQ ID NO. 5) by that time (i.e., Q3d d0-18 and Q3d d3-18 but not Q3d d6-18). […] Statistical analysis was undertaken using t-tests and an asterisk indicates statistically significant differences from control (p<0.05).

MRSA (UC6685) = assay: MRSA peritoneal infection model in combination with vancomycin; format: in vivo, mouse; settings: female CF-1 mice, 50 mg/kg IV 48 or 72 h prior to inoculation, with vancomycin 3 mg/kg SC 1 and 5 h after infection; 5 days
Description: RIVPA (SEQ ID NO. 5) (50 mg/kg) or saline treatment was administered IV either 48 or 72 h prior to inoculation with MRSA (UC6685; 8.2×10^7 colony forming units [cfu]) to female CF-1 mice (N=10/group). Vancomycin treatment (3 mg/kg) was administered subcutaneously (SC), 1 and 5 h after infection. Survival was monitored once daily for 5 days.

S. aureus = S. aureus infection studies, single IV RIVPA treatment (Table 2 summary); format: in vivo, mouse; settings: for % Successful Treatments Any Dose Schedule: success = at least 20% increase in survival over saline control
MRSA = MRSA skin infection model; format: in vivo, mouse
Description: Infection was initiated 1 day after the hair was removed from the dorsal area of each mouse. RIVPA (SEQ ID NO. 5) (25 mg/kg IV or 100 mg/kg SC) was administered 4 h prior to infection and at various times after infection as indicated. Oral linezolid was used as the comparator and was administered daily at 12.5 mg/kg. On Day 0 (at −1 h) each mouse was anesthetized using isoflurane and the shaved dorsal skin was damaged by 7 consecutive applications and removals of surgical tape. This lesion was then immediately infected by topical administration of 10 μL of the bacterial suspension, delivering a total challenge of 7.6 login cfu per mouse. Efficacy was evaluated by measurement of the bacterial burden in punch biopsies of the skin at 48 h (FIG. 14—panel A) and 96 h (FIG. 14—panel B) following the bacterial challenge and by macroscopic assessment of digital images of the skin by a blinded, board-certified pathologist at 48 h (FIG. 14—panel C) and 96 h (FIG. 14—panel D) after infection. […] The mean bacterial burden for each therapeutic group was statistically compared to that of its time-matched saline control through use of a t-test comparison of means, assuming unequal variances, performed on Excel. Comparisons which returned a p value […] were considered statistically different.

mice = assay: mouse IV toxicity studies (pilot single dose, GLP 14-day, acute); format: in vivo
Description: Two pilot and 2 definitive repeat-dose toxicity studies were conducted with RIVPA (SEQ ID NO. 5) in mice and cynomolgus monkeys using the intravenous (IV; slow bolus) route of administration. All studies were conducted by LAB Research Inc., Canada.
These resolved within a few minutes without detectable residual effects.
The safety of multiple daily injections of RIVPA (SEQ ID NO. 5) has also been evaluated in GLP studies in mice and cynomolgus monkeys. In mouse, doses of 20, 60, or 90 mg/kg/day were given IV for 14 days.
The observed respiratory depression occurred at different dose levels in different species, and was not predicted by allometric scaling. In particular, the mouse appeared to be the most sensitive species with acute toxicity occurring rarely at 60 mg/kg (HED: ^˜5 mg/kg) and commonly at 90 mg/kg (HED: ^˜7 mg/kg). In contrast in NHP (cynomologus monkey), acute toxicity occurred occasionally at 160 mg/kg (HED: ^˜50 mg/kg) and consistently at 240 mg/kg (HED: ^˜78 mg/kg).

[1] = system: central nervous system (CNS); assay: effects on the central nervous system in any study; format: in vivo; settings: any study at any dose level
Description: No effects of RIVPA (SEQ ID NO. 5) have been observed on the central nervous system (CNS) in any study at any dose level and little or no radiolabelled RIVPA (SEQ ID NO. 5) was found in the mouse CNS at dose levels of either 20 or 90 mg/kg.

mouse normal blood cells = assay: proliferation of mouse normal blood cells in vitro; format: cell-based
[2] = system: primary human leukemia cells; assay: proliferation of primary human leukemia cells in vitro; format: cell-based
leukopenic animals = assay: infection studies in leukopenic animals (antibiotic interference); format: in vivo
[3] = Phase 1 study, human pharmacokinetics; format: in vivo
Description: In the single-dose phase of a healthy volunteer Phase 1 trial, RIVPA (SEQ ID NO. 5) was rapidly eliminated, with plasma levels decreasing to less than 10 percent of the maximum concentration (Cmax) within 9 min after the start of the 4-minute IV infusion. Following the rapid decline, a slower elimination phase was observed. […] Maximum plasma concentrations and total exposure levels were dose-proportional and clearance of RIVPA (SEQ ID NO. 5) from the circulation was rapid, consistent with the mouse and NHP experience.
In light of the high clearance and short elimination half-life, accumulation following daily injection was not expected to occur.

RIVPA-NH2 [RIVPA (SEQ ID NO. 5), RIVPA]
endoscopic colitis severity score (male C57BL/6 mice; Day 7, Q3d d0-18): reduction
endoscopic colitis severity score (male C57BL/6 mice; Day 7, Q3d d3-18): reduction
endoscopic colitis severity score (male C57BL/6 mice; Day 14, all regimens, 25 mg/kg IV every third day): statistically significant reduction
endoscopic colitis response (male C57BL/6 mice; Day 21, all 3 treatment groups): responding in a similar manner
edema and necrosis, histopathology of the colon (male C57BL/6 mice; Day 21, some RIVPA treated groups): statistically significantly decreased
severity of DSS-induced colitis (male C57BL/6 mice; endoscopy days 7, 14, 21 and histopathology day 21, FIG. 3): reduces
survival (MRSA (UC6685)): increased survival
dose dependence of effects (S. aureus; between 1 and 50 mg/kg in mouse): dose dependent
dose levels consistently demonstrating efficacy (S. aureus; mouse, stand-alone IV): ≥ 25 mg/kg
% Successful Treatments RIVPA administered 4 h prior to infection (S. aureus; single IV dose 1 mg/kg): 0%
% Successful Treatments Any Dose Schedule (S. aureus; single IV dose 1 mg/kg): 0%
% Successful Treatments RIVPA administered 4 h prior to infection (S. aureus; single IV dose 5 mg/kg): 33%
% Successful Treatments Any Dose Schedule (S. aureus; single IV dose 5 mg/kg): 42%
% Successful Treatments RIVPA administered 4 h prior to infection (S. aureus; single IV dose 25 mg/kg): 50%
% Successful Treatments Any Dose Schedule (S. aureus; single IV dose 25 mg/kg): 67%
% Successful Treatments RIVPA administered 4 h prior to infection (S. aureus; single IV dose 50 mg/kg): 100%
% Successful Treatments Any Dose Schedule (S. aureus; single IV dose 50 mg/kg): 100%
skin healing (MRSA; 25 mg/kg IV or 100 mg/kg SC, 4 h prior to infection and after): accelerating skin healing
bacterial load in skin punch biopsies relative to control (MRSA; 48 or 96 h after bacterial challenge): neither linezolid nor RIVPA (SEQ ID NO. 5) reduced bacterial load
resolution of tissue damage in topically MRSA-infected skin (MRSA; FIG. 14): enhances
immune-related organ weights, histopathology, hematology and clinical chemistry (mice; mouse 14-day toxicity study): no changes were observed
adverse effects (mice; mouse, 20 mg/kg for 14 days): No adverse effects were observed
mortality or clinical signs (mice; mouse, 20 mg/kg/day IV for 14 days): No test article-related mortality or clinical signs
HED of acutely toxic dose (mice; mouse, 60 mg/kg): ~5 mg/kg
occurrence of acute toxicity (respiratory depression) (mice; mouse, 60 mg/kg): rarely
mortality (mice; mouse, 60 mg/kg/day IV for 14 days): Lethality was also observed in 1 animal
HED of acutely toxic dose (mice; mouse, 90 mg/kg): ~7 mg/kg
occurrence of acute toxicity (respiratory depression) (mice; mouse, 90 mg/kg): commonly
mortality (mice; mouse, 90 mg/kg/day IV for 14 days): Deaths were observed
organ toxicity, biochemistry, hematology (mice; mouse, survivors of all groups, 14 days): no evidence of toxicity in any organ or abnormal biochemistry or hematology
effects on the central nervous system (CNS) [1]: No effects
proliferation of normal blood cells (mouse normal blood cells): did not promote the proliferation
proliferation of primary leukemia cells [2]: did not promote the proliferation
interference with antibiotic efficacy (leukopenic animals): no interference
pre-dose concentrations ([3]; daily for 7 days, Days 5, 6, 7 and Day 8 (24 h after start of infusion on Day 7), all subjects): below the lower limit of quantitation (LLOQ)
clearance from the circulation ([3]; human subjects, IV administration): within minutes
Tmax ([3]; human, plasma, intravenous, after the start of infusion, dose range 0.15 mg/kg to 8 mg/kg, read-out: mean time of maximum concentration (Tmax)): 4 to 4.8 min
maximum plasma concentrations and total exposure levels versus dose ([3]; single-dose phase): dose-proportional
plasma levels relative to the maximum concentration (Cmax) ([3]; within 9 min after the start of the 4-minute IV infusion, single-dose phase): less than 10%
